Counter-ions that a name gives are not always drawn. Like-named read-outs stand apart in the source and are kept apart here.
What was measured:
HeLa cells [1] = system: HeLa cells
[2] = target: wild type A/M2 proton channel (Influenza A virus, UniProt P0DOF5); type: biochemical; conditions: 100 μM; TEVC, Xenopus oocytes; data not shown
[3] = system: human airway epithelial Calu-3 cells; conditions: data not shown
Reovirus-1 = assay: organism not typed; type: cell-based; conditions: Vero, read-out: Antiviral activity: EC50, Reovirus-1
Punta Toro virus = assay: microbe, parasite or virus in culture; type: cell-based; conditions: Vero, read-out: Antiviral activity: EC50, Punta Toro virus
HeLa cells [4] = system: HeLa cells; remark: listed apart in the source
Para-influenza-3 virus = assay: organism not typed; type: cell-based; conditions: Vero, read-out: Antiviral activity: EC50, Para-influenza-3 virus
hDHFR = hDHFR (Homo sapiens, UniProt P00374); type: biochemical; conditions: Lineweaver-Burk plot at 3, 6 and 12 µM; substrate DHF
[5] = metabolites of proguanil ref 32; cited from earlier work

Chain of wild type A/M2 proton channel (P0DOF5 whole entry, looked up): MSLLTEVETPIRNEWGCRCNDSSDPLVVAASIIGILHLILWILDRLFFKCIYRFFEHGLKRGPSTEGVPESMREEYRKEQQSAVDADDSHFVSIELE
Chain of hDHFR (P00374 whole entry): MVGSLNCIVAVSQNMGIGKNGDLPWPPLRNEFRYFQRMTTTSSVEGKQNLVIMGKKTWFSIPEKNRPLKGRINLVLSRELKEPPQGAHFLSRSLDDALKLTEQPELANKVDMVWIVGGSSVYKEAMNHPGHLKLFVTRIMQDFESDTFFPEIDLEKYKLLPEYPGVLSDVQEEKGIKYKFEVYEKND

Structure (SMILES) | Cytotoxicity: MCC (HeLa cells [1]; HeLa cells, microscopy) [µM] | Cytotoxicity: MCC (Vero cells; Vero cells, microscopy) [µM] | also measured
CC1(C)N=C(N)N=C(N)N1c1cccc(F)c1 [Compound 12, 4,6-Diamino-2,2-dimethyl-1-(3-fluorophenyl)-1,2-dihydrotriazine hydrochloride] | – | – | Cytotoxicity: MCC (HeLa cells [1]; human): ≥100 µM
[H]/N=C(\N/C(=N/[H])Nc1ccc(Cl)cc1)NC(C)C [Compound 30, proguanil, reference compound] | >100 | 20 | –
CC1(C)N=C(N)N=C(N)N1c1ccc(Cl)c(Cl)c1 [Compound 16] | >100 | – | Inhibition of wild type M2 channel [2]: neither of the three compounds significantly inhibited; Cytotoxicity MCC [3]: > 100 µM
CC1(C)N=C(N)N=C(N)N1c1cccc(Br)c1 [Compound 13] | ≥100 | >100 | Cytotoxicity MCC [3]: > 100 µM
CCC1(C)N=C(N)N=C(N)N1c1ccc(Cl)cc1 (stereo not drawn) [Compound 18] | >100 | >100 | –
COc1c(C)c2c(c(O)c1C/C=C(\C)CCC(=O)O)C(=O)OC2 [Mycophenolic acid] | – | – | EC50 (Reovirus-1): 1.8 µM; EC50 (Punta Toro virus): 20 µM
NC1=NC2(CCCCC2)N(c2cccc(Cl)c2)C(N)=N1 [Compound 24] | ≥100 | >100 | –
CC1(C)N=C(N)N=C(N)N1c1ccc(Br)cc1 [Compound 6] | >100 | >100 | –
CC1(C)N=C(N)N=C(N)N1c1cccc(C(F)(F)F)c1 [Compound 14] | ≥100 | – | Inhibition of wild type M2 channel [2]: neither of the three compounds significantly inhibited; Cytotoxicity MCC (HeLa cells [4]; dihydrofolic acid 1.0 μM): 20 µM; Cytotoxicity MCC (HeLa cells [4]; dihydrofolic acid 2.6 μM): 20 µM; Cytotoxicity MCC (HeLa cells [4]; dihydrofolic acid 16 μM): 20 µM; Cytotoxicity MCC (HeLa cells [4]; dihydrofolic acid 40 μM): 20 µM; Cytotoxicity MCC (HeLa cells [4]; dihydrofolic acid 400 μM): 20 µM; Cytotoxicity MCC (HeLa cells [4]; human): 20 µM; Cytotoxicity MCC (HeLa cells [4]; independent of whether dihydrofolic acid was present or not): 20 µM; Cytotoxicity MCC [3]: > 100 µM
NC1=NC(c2ccccc2)N(c2ccc(Cl)cc2)C(N)=N1 (stereo not drawn) [Compound 28] | – | >100 | –
CCCC1N=C(N)N=C(N)N1c1ccc(Cl)cc1 (stereo not drawn) [Compound 27] | >100 | >100 | –
CCc1nc(N)nc(N)c1-c1ccc(Cl)cc1 [Compound 32, pyrimethamine, reference compound] | ≥100 | – | Cytotoxicity MCC [3]: > 100 µM
CC1(C)N=C(N)N=C(N)N1c1ccc(C(=O)O)cc1 [Compound 8] | >100 | >100 | –
NC(=O)c1ncn([C@@H]2O[C@H](CO)[C@@H](O)[C@H]2O)n1 [Ribavirin] | – | – | EC50 (Para-influenza-3 virus): 112 µM
NC1=NC2(CCCC2)N(c2cccc(Cl)c2)C(N)=N1 [Compound 21, 1-(3-Chlorophenyl)-2,2-cyclotetramethylene-4,6-diamino-1,2-dihydrotriazine hydrochloride] | ≥100 | >100 | –
CC1(C)N=C(N)N=C(N)N1c1cccc(Cl)c1 [Compound 11] | >100 | – | Cytotoxicity MCC [3]: > 100 µM

Structure (SMILES) | Cytotoxicity: MCC (HeLa cells [1]; HeLa cells, microscopy) [µM] | Cytotoxicity: MCC (Vero cells; Vero cells, microscopy) [µM] | also measured
CC1(C)N=C(N)N=C(N)N1c1cc(C(F)(F)F)cc(C(F)(F)F)c1 [Compound 17, 4,6-Diamino-2,2-dimethyl-1-(3,5-ditrifluoromethylphenyl)-1,2-dihydrotriazine hydrochloride] | – | – | Cytotoxicity: MCC (HeLa cells [1]; human): ≥100 µM; Cytotoxicity: MCC (Vero cells; African green monkey): >100 µM
CC1(C)N=C(N)N=C(N)N1c1ccccc1Cl [Compound 10] | >100 | >100 | –
CC1(C)N=C(N)N=C(Nc2ccc(Cl)cc2)N1 [Compound 29] | >100 | >100 | –
CC1(C)N=C(N)N=C(N)N1c1ccc(Cl)cc1Cl [Compound 15] | >100 | >100 | –
NC1=NC2(CCCC2)N(c2cccc(C(F)(F)F)c2)C(N)=N1 [Compound 22, 2,2-Cyclotetramethylene-4,6-diamino-1-(3-trifluoromethylphenyl)-1,2-dihydrotriazine hydrochloride] | ≥100 | >100 | –
CC1(C)N=C(N)N=C(N)N1c1ccc(Cl)cc1 [Compound 1, cycloguanil, reference compound] | >100 | >100 | Inhibition pattern towards the substrate (hDHFR): competitive inhibition pattern; Inhibition of wild type M2 channel [2]: neither of the three compounds significantly inhibited; Cytotoxicity MCC [3]: > 100 µM; Share of the total drug concentration in plasma [5]: about 30%
CC1(C)N=C(N)N=C(N)N1c1ccc([N+](=O)[O-])cc1 [Compound 7] | >100 | >100 | –
NC1=NC2(CCCC2)N(c2ccc(Cl)cc2)C(N)=N1 [Compound 20] | >100 | >100 | –
CCOC(=O)c1ccc(N2C(N)=NC(N)=NC2(C)C)cc1 [Compound 9] | >100 | >100 | –
CC1(C)N=C(N)N=C(N)N1c1ccccc1 [Compound 2] | >100 | >100 | –
COc1ccc(N2C(N)=NC(N)=NC2(C)C)cc1 [Compound 4] | >100 | >100 | –
NC1=NC2(CCCCC2)N(c2cccc(C(F)(F)F)c2)C(N)=N1 [Compound 25, 2,2-Cyclopentamethylene-4,6-diamino-1-(3-trifluoromethylphenyl)-1,2-dihydrotriazine hydrochloride] | ≥100 | >100 | Cytotoxicity MCC [3]: > 100 µM
N=C(N)NC(=N)Nc1ccc(Cl)cc1 [1-(4-chlorophenyl)biguanide] | – | – | Share of the total drug concentration in plasma [5]: ~23%
Cc1ccc(N2C(N)=NC(N)=NC2(C)C)cc1 [Compound 3] | >100 | >100 | –
CC(C)C1(C)N=C(N)N=C(N)N1c1ccc(Cl)cc1 (stereo not drawn) [Compound 19] | >100 | >100 | –
CC1(C)N=C(N)N=C(N)N1c1ccc(F)cc1 [Compound 5] | >100 | >100 | –
